PMC11969009 (Nature Communications, 2025)
Where “and” joins values, the source holds several entries; their conditions need not be identical. Equal entries are not always repeated. Where two headings read alike, the source gives them in different places.

Tests used:
NL63 PL2pro = NL63 PL2pro (Human coronavirus NL63, UniProt P0C6X5); experiment: biochemical; settings: read-out: inhibition of NL63 PL2pro, UbRh dose-response replicate value
USP21 = USP21 (Homo sapiens, UniProt Q9UK80); format: biochemical
HKU1 PLpro = HKU1 PLpro (Human coronavirus HKU1, UniProt P0C6X2); experiment: biochemical; format: biochemical; set-up: inhibition of HKU1 PLpro, UbRh dose-response replicate value: unit: %
SARS-CoV-2 PLpro [1] = molecular target: T1, SARS-CoV-2 PLpro (Severe acute respiratory syndrome coronavirus 2, UniProt P0DTD1); experiment: biochemical; set-up: inhibition of SARS-CoV-2 PLpro, UbRh dose-response replicate value: unit: %
SARS-CoV-2 PLpro [2] = molecular target: T1, SARS-CoV-2 PLpro; experiment: biochemical; format: binding

Sequence of HKU1 PLpro (P0C6X2 1648-1958 limits assumed): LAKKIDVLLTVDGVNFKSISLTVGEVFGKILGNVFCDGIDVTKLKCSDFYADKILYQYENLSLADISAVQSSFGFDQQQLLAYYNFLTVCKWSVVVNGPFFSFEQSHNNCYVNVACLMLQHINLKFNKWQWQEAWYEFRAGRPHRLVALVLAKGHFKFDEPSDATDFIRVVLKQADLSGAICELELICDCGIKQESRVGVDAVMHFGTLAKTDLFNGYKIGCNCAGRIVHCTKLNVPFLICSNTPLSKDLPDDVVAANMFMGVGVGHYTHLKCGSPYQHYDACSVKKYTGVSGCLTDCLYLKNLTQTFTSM
Sequence of NL63 PL2pro (P0C6X5 1578-1876 limits assumed): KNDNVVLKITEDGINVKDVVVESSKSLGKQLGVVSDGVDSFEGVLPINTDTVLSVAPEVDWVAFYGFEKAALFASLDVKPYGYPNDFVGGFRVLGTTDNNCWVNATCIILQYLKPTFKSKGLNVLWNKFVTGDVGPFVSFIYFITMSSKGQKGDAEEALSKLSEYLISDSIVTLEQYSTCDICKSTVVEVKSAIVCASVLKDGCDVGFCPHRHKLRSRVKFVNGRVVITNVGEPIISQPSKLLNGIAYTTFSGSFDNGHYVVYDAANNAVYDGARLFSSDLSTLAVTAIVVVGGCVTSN
Sequence of USP21 (Q9UK80 whole entry): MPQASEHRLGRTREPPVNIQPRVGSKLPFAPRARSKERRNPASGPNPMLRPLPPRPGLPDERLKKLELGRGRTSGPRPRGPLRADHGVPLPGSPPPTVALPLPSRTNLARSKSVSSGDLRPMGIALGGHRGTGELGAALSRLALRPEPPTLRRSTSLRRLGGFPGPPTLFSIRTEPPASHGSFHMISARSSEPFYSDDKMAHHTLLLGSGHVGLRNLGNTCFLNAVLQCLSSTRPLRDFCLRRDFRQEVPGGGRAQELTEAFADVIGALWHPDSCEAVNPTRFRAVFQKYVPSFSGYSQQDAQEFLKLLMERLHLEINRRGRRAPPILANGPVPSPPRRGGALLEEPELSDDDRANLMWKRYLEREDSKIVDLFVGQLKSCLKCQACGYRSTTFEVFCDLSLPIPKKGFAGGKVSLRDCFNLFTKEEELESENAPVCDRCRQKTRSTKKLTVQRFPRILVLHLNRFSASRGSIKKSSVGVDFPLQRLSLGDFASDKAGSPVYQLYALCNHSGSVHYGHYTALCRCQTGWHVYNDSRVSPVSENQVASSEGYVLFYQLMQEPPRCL

CO/N=C(/c1ccc2cc(OC)ccc2c1)[C@@H]1CCCN([C@H]2CC[C@@H](O)CC2)C1 [WEHI-P4]
inhibition at 98 µM (NL63 PL2pro; Conc 98 µM): 58.4%
inhibition at […] (NL63 PL2pro): 34.7% and 15.8%
inhibition of USP21, UbRh dose-response replicate value (USP21): -14.237 and -11.9773 and -10.1399 and -17.0381 and -16.4868 and -21.6825 and -18.261 and -18.781 and -13.7423 and -13.1772 and -6.117 and -6.284 and -18.5884 and -21.057 and -7.715 and -13.3224
inhibition of USP21, UbRh dose-response replicate value (USP21; Conc 0.000249 µM): -14.4284 and -17.3988 and 5.209 and -15.2664
inhibition of USP21, UbRh dose-response replicate value (USP21; Conc 0.000745 µM): -25.0632 and -19.3083 and -9.965 and -17.0572
inhibition of USP21, UbRh dose-response replicate value (USP21; Conc 0.00675 µM): -16.8226 and -16.7878 and -5.942 and -9.8797
inhibition of USP21, UbRh dose-response replicate value (USP21; Conc 0.545 µM): -6.303 and -14.0881 and -12.3002 and -21.4576
inhibition of USP21, UbRh dose-response replicate value (USP21; Conc 1.64 µM): -4.137 and -7.939 and -11.2839 and -6.868
inhibition of USP21, UbRh dose-response replicate value (USP21; Conc 4.9 µM): -8.882 and -9.138
inhibition of HKU1 PLpro, UbRh dose-response replicate value (HKU1 PLpro): 1.705 and -0.1054 and 2.2991 and 4.234 and 8.121 and -2.271 and 3.812 and 1.385 and 5.008 and 9.904 and 4.3232 and 13.1694 and 12.2718 and 4.484 and 1.663 and 12.2999 and 8.634 and 4.883 and 1.702 and 14.2701
inhibition of HKU1 PLpro, UbRh dose-response replicate value (HKU1 PLpro; Conc 0.00498 µM): 10.7444 and 9.596 and 9.063
inhibition at 0.00498 µM (HKU1 PLpro; Conc 0.00498 µM, read-out: inhibition of HKU1 PLpro, UbRh dose-response replicate value): 6.7%
inhibition of HKU1 PLpro, UbRh dose-response replicate value (HKU1 PLpro; Conc 0.0149 µM): 6.961 and -0.5687 and 9.316 and 1.404
inhibition of HKU1 PLpro, UbRh dose-response replicate value (HKU1 PLpro; Conc 0.0448 µM): 2.999 and 18.114 and 6.887 and 6.926
inhibition of HKU1 PLpro, UbRh dose-response replicate value (HKU1 PLpro; Conc 3.63 µM): -1.799 and 2.922 and 4.67 and 5.455
inhibition of HKU1 PLpro, UbRh dose-response replicate value (HKU1 PLpro; Conc 98 µM): -6.574 and 1.985 and 4.593 and -1.2047
inhibition of SARS-CoV-2 PLpro, UbRh dose-response replicate value (SARS-CoV-2 PLpro [1]; Conc 0.000249 µM): -6.989 and -6.2311 and -15.3901 and -12.0234 and -3.121 and 2.182 and 11.6978 and 1.819
inhibition of SARS-CoV-2 PLpro, UbRh dose-response replicate value (SARS-CoV-2 PLpro [1]; Conc 0.000745 µM): -5.473 and -5.949 and -17.0454 and -10.682
inhibition of SARS-CoV-2 PLpro, UbRh dose-response replicate value (SARS-CoV-2 PLpro [1]; Conc 0.000747 µM): 12.1399 and 17.4092 and 12.0617
inhibition at 0.000747 µM (SARS-CoV-2 PLpro [1]; Conc 0.000747 µM, read-out: inhibition of SARS-CoV-2 PLpro, UbRh dose-response replicate value): 8.73%
inhibition of SARS-CoV-2 PLpro, UbRh dose-response replicate value (SARS-CoV-2 PLpro [1]; Conc 0.00498 µM): -1.775 and 0.6518 and -0.6615 and -14.6544
inhibition of SARS-CoV-2 PLpro, UbRh dose-response replicate value (SARS-CoV-2 PLpro [1]; Conc 0.00675 µM): 22.4234 and 17.1978 and 22.0771
inhibition at 0.00675 µM (SARS-CoV-2 PLpro [1]; Conc 0.00675 µM, read-out: inhibition of SARS-CoV-2 PLpro, UbRh dose-response replicate value): 23.8%
inhibition of SARS-CoV-2 PLpro, UbRh dose-response replicate value (SARS-CoV-2 PLpro [1]; Conc 0.0149 µM): 22.1269 and 15.6043 and 12.3348
inhibition at 0.0149 µM (SARS-CoV-2 PLpro [1]; Conc 0.0149 µM, read-out: inhibition of SARS-CoV-2 PLpro, UbRh dose-response replicate value): 20.2%
inhibition of SARS-CoV-2 PLpro, UbRh dose-response replicate value (SARS-CoV-2 PLpro [1]; Conc 0.0448 µM): 70.4961 and 67.8098 and 82.9795
inhibition at 0.0448 µM (SARS-CoV-2 PLpro [1]; Conc 0.0448 µM, read-out: inhibition of SARS-CoV-2 PLpro, UbRh dose-response replicate value): 69.6%
inhibition of SARS-CoV-2 PLpro, UbRh dose-response replicate value (SARS-CoV-2 PLpro [1]; Conc 0.545 µM): 96.1218 and 96.9708 and 96.4204 and 99.1563 and 99.6768 and 97.5259 and 100.026
inhibition at 0.545 µM (SARS-CoV-2 PLpro [1]; Conc 0.545 µM, read-out: inhibition of SARS-CoV-2 PLpro, UbRh dose-response replicate value): 94.8%
inhibition of SARS-CoV-2 PLpro, UbRh dose-response replicate value (SARS-CoV-2 PLpro [1]; Conc 1.63 µM): 99.7919 and 99.9266 and 100.674
inhibition at 1.63 µM (SARS-CoV-2 PLpro [1]; Conc 1.63 µM, read-out: inhibition of SARS-CoV-2 PLpro, UbRh dose-response replicate value): 99.9%
inhibition of SARS-CoV-2 PLpro, UbRh dose-response replicate value (SARS-CoV-2 PLpro [1]; Conc 1.64 µM): 100.528 and 98.3984 and 97.5602
inhibition at 1.64 µM (SARS-CoV-2 PLpro [1]; Conc 1.64 µM, read-out: inhibition of SARS-CoV-2 PLpro, UbRh dose-response replicate value): 101%
inhibition of SARS-CoV-2 PLpro, UbRh dose-response replicate value (SARS-CoV-2 PLpro [1]; Conc 3.63 µM): 107.19 and 107.537 and 118.551
inhibition at 3.63 µM (SARS-CoV-2 PLpro [1]; Conc 3.63 µM, read-out: inhibition of SARS-CoV-2 PLpro, UbRh dose-response replicate value): 108%
inhibition of SARS-CoV-2 PLpro, UbRh dose-response replicate value (SARS-CoV-2 PLpro [1]; Conc 4.9 µM): 99.5845 and 98.2639 and 99.0831 and 98.0118 and 99.4255 and 97.4945 and 99.077
inhibition at 4.9 µM (SARS-CoV-2 PLpro [1]; Conc 4.9 µM, read-out: inhibition of SARS-CoV-2 PLpro, UbRh dose-response replicate value): 99.1%
inhibition of SARS-CoV-2 PLpro, UbRh dose-response replicate value (SARS-CoV-2 PLpro [1]; Conc 98 µM): 106.984 and 107.551 and 120.253
inhibition at 98 µM (SARS-CoV-2 PLpro [1]; Conc 98 µM, read-out: inhibition of SARS-CoV-2 PLpro, UbRh dose-response replicate value): 107%
IC50 (SARS-CoV-2 PLpro [1]; IC50 (UbRh) SARS-CoV-2 PLpro, Supplementary Fig. 2b): 0.032 µM
inhibition at […] (SARS-CoV-2 PLpro [1]; read-out: inhibition of SARS-CoV-2 PLpro, UbRh dose-response replicate value): 93.6% and 81.4% and 107% (2×) and 108% and 105% and 99.2% and 92.6%
Kd (SARS-CoV-2 PLpro [2]): 0.018 µM
Response (RU), report points (SARS-CoV-2 PLpro [2]): 23.5521 RU and 19.8909 RU and 21.8514 RU and 23.0991 RU and 23.6093 RU and 23.8360 RU
